Consider 79 compounds from the METLIN SMRT retention time set (Domingo-Almenara et al. 2019).

SMILES strings stand for the structures.

The data set is described as follows: gradient 5% acetonitrile 3 min, to 50% in 2 min, to 85% in 15 min, held 3 min, 100 µL/min. As to conditions: column: Zorbax Extend-C18 2.1 x 50 mm; eluents: water / acetonitrile, 0.1% formic acid. Put shortly: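 In both positive and negative ionization mode, a quadrupole time-of-flight mass spectrometer coupled to HPLC analyzed pure standards run in mixtures of ~100 molecules. The Zorbax Extend-C18 column (2.1 × 50 mm, 1.8 μm) was operated at 100 μL/min with water and acetonitrile, each containing 0.1% formic acid. The dead volume was 40 μL and the dwell volume 900 μL. Retention time came from adduct peaks that were computationally picked and individually inspected by hand.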
`CCn1nc(C)c(CCNC(=O)c2ccc3nc(C(C)C)oc3c2)c1C`: the RP-LC retention time stood at 662 s.

`COc1ccc(N2CCN(c3nc(C(=O)NCCN(C)C)cs3)CC2)cc1` displayed an RP-LC retention time of 618 s.

For the compound `CC(C)NC(=O)c1nc(N2CCSCC2)c2cnn(C)c2n1`, the RP-LC retention time was determined as 705 s.

As to `CCOc1ncccc1CNC(=O)c1ccc2nc[nH]c2c1`, the RP-LC retention time turned out to be 569 s.

As for `Cc1cc(NC(=O)C2CCN(C(=O)c3ncn4c3COC(c3ccc(F)cc3)C4)CC2)ccc1F` (centres undefined), the RP-LC retention time came out at 839 s.

`O=C(Nc1ccc2c(c1)OCO2)C1CCCN(c2ncc(-c3ccc(F)cc3)cn2)C1` (centres undefined): the RP-LC retention time worked out at 1060 s.

`CCOCCCNC(=O)Nc1ccc(CCc2nc3ccccc3[nH]2)cc1` registered an RP-LC retention time of 598 s.

As to `CCOc1ccc(NC(=O)c2oc3ccc(C)cc3c2C)c2cccnc12`, the RP-LC retention time is 766 s.

With `O=C(NCc1ccc2c(c1)N(C(=O)c1ccccc1)CC2)c1cccs1`, the RP-LC retention time turned out to be 814 s.

As for `COCCSc1nnc(NC(=O)C2CCN(C(=O)c3ccccc3F)CC2)s1`, the RP-LC retention time worked out at 680 s.

In turn, `Cc1ccccc1CN1C(=O)N(c2cccc(F)c2)c2ncccc2S1(=O)=O` gave an RP-LC retention time of 1090 s.

`COc1ccc(-n2cc(C(=O)Nc3ccc(OC)cc3OC)nn2)cc1` yielded an RP-LC retention time of 1000 s.

`COc1ccc(-c2noc(Cc3nnc(-c4cccc(F)c4)o3)n2)cc1` had an RP-LC retention time of 1020 s.

For `CCN(Cc1ccccc1)C(=O)C1CCN(c2ncnc3c2oc2ccccc23)CC1`, the RP-LC retention time is 871 s.

`Cc1ccn2cc(C(=O)N3CCN(c4ccc(Cl)cc4)CC3)nc2c1` returned an RP-LC retention time of 715 s.

`Cn1c(C2CCN(C(=O)Nc3ccc(F)cc3)CC2)cc(=O)n2nccc12` registered an RP-LC retention time of 615 s.

`CCC1(O)CCC12CCN(C(=O)c1ccoc1)CC2` (centres undefined) came in with an RP-LC retention time of 691 s.

On to `Cn1cc(-c2nc(C(=O)Nc3cccc(C#N)c3)cs2)c2cccnc21`, for which the RP-LC retention time was found to be 946 s.

Consider `CCc1nc(-c2ccc(-c3noc(CNS(=O)(=O)c4ccccc4)n3)cc2)cs1`, for which the RP-LC retention time was 1020 s.

`Cc1ccc(S(=O)(=O)N2CCCN(c3ccc(=O)n(-c4ccc(F)cc4)n3)CC2)c(C)c1` gave an RP-LC retention time of 961 s.

`COc1ccc(NC(=O)Nc2cccn3c(C4CCC4)nnc23)cc1F` gave an RP-LC retention time of 815 s.

The compound `CCn1cnc2cc(-c3noc(CNC(=O)c4ccco4)n3)ccc21` had an RP-LC retention time of 588 s.

Consider `COc1ccccc1NC(=O)NCCc1nc2cccnc2n1C1CCCCC1`, for which the RP-LC retention time came to 743 s.

With `CCCNS(=O)(=O)c1cc(-c2c(CC)noc2NC(C)=O)ccc1OC`, the RP-LC retention time stood at 774 s.

`CCN1CCC(N(Cc2cccs2)C(=O)Nc2cccc(Cl)c2)CC1` registered an RP-LC retention time of 679 s.

`CCc1nn2c(CNC(=O)c3ccc(F)c(F)c3)c(-c3ccccc3)nc2s1` came in with an RP-LC retention time of 661 s.

`O=C(c1ccc2c(=O)n(-c3ccccc3)c(N3CCCC3)nc2c1)N1CCN(c2ccccn2)CC1` registered an RP-LC retention time of 617 s.

For `CC1=C(c2ccccc2)S(=O)(=O)N=C1N1CCCN(C(=O)c2ccoc2)CC1`, the RP-LC retention time turned out to be 728 s.

The compound `Cc1nc2nc(-c3ccccc3)nn2c(C)c1CC(=O)N1CCCC1` came in with an RP-LC retention time of 679 s.

The compound `CCn1c(N2CCN(C(=O)Nc3ccccc3OC)CC2)nc2ccccc21` registered an RP-LC retention time of 655 s.

For `Cc1ccc(-n2c(N3CCC(C(=O)NCC(C)C)CC3)nc3ccsc3c2=O)cc1`, the RP-LC retention time is 821 s.

In turn, `CCOC(=O)c1c(NC(=O)c2ccc(S(=O)(=O)N(C)C)cc2)sc(C)c1C` had an RP-LC retention time of 1170 s.

`O=C(NCc1ccccc1)c1ccc2ccnc(N3CCN(C(=O)c4ccco4)CC3)c2c1` registered an RP-LC retention time of 673 s.

As for `Cc1nc(-c2csc(S(=O)(=O)N3CCCC(C(=O)Nc4ccc(C)c(C)c4)C3)c2)no1` (centres undefined), the RP-LC retention time was 939 s.

In turn, `CCNC(=O)c1sc2nc(-c3cccc(F)c3)c(NCCOC)n2c1C` yielded an RP-LC retention time of 800 s.

The compound `COc1ccc(NC(=O)N(C)CCc2noc(COc3ccc(Cl)cc3)n2)cc1` registered an RP-LC retention time of 1010 s.

Regarding `COc1ccc(N2CCN(C(=O)C3CCCN(c4nnc5cccc(C)n45)C3)CC2)cc1` (centres undefined), the RP-LC retention time was 661 s.

In turn, `O=C(NCCn1nc(-c2cccs2)ccc1=O)c1cc(-c2cccs2)[nH]n1` yielded an RP-LC retention time of 573 s.

For the compound `Cc1cccc(NC(=O)c2cc(C)n3nccc3n2)c1`, the RP-LC retention time was determined as 955 s.

Consider `CCC(=O)N1c2ccc(S(=O)(=O)N3CCCCC3)cc2CC1C(=O)NC1CC1` (centres undefined), for which the RP-LC retention time was determined as 758 s.

`O=C(CN1C(=O)CSc2ccc(C(=O)N3CCCCC3)cc21)NCCN1CCCCC1`: the RP-LC retention time stood at 612 s.

With `CCOc1ccc(CN2CCc3nc(N4CCN(c5ccccc5F)CC4)ncc3C2)cc1`, the RP-LC retention time was determined as 834 s.

Compound `COc1ccc(NC(=O)Cn2c(N3CCCCC3)nc(C)cc2=O)cc1` returned an RP-LC retention time of 661 s.

`OC(COCc1ccc(Cl)cc1)CN1CCN(c2ccccn2)CC1` (centres undefined) showed an RP-LC retention time of 567 s.

Consider `Cc1cccc(S(=O)(=O)Nc2ccc(C3(C(=O)NCC4CCCO4)CC3)cc2)c1` (centres undefined), for which the RP-LC retention time is 828 s.

`COC(=O)c1c(C)[nH]c(C(=O)N2CCC(CC(=O)NCc3cccc(Br)c3)CC2)c1C` came in with an RP-LC retention time of 800 s.

`CCCn1cc(S(=O)(=O)Nc2cc(F)ccc2C)c2cccnc21` gave an RP-LC retention time of 926 s.

In turn, `CCc1noc(NC(C)=O)c1-c1ccc(C)c(S(=O)(=O)NC2CCCC2)c1` came in with an RP-LC retention time of 808 s.

In turn, `Cc1cc(Cl)ccc1OCC(=O)Nc1nc(-c2cccc3ccccc23)cs1` yielded an RP-LC retention time of 1310 s.

In the case of `CC(=O)Nc1ccc(NC(=O)COc2cc(C)nc(-c3ccc(C(F)(F)F)cc3)n2)cc1`, the RP-LC retention time is 887 s.

Take `CCN1C(=O)C2(CCN(S(=O)(=O)c3ccc(C)cc3)CC2)c2ccccc21`: the RP-LC retention time was found to be 1050 s.

In turn, `COc1ccccc1OCC(=O)Nc1ccc2c(c1)N(C(=O)c1ccco1)CCC2` displayed an RP-LC retention time of 881 s.

The compound `Cc1nc(C2CN(S(=O)(=O)c3ccccc3C(F)(F)F)CC23CCOCC3)no1` (centres undefined) showed an RP-LC retention time of 892 s.

Consider `COc1cccc(CN2CCn3c(nnc3[C@@H]3C[C@@H](O)CN3Cc3cccnc3)C2)c1OC`, for which the RP-LC retention time is 573 s.

Consider `CCCCN(C)C(=O)CCC1CCCN(c2cc(NCC)ncn2)C1` (centres undefined), for which the RP-LC retention time was determined as 658 s.

Regarding `Cc1ccc(OCc2nn3c(-c4ccoc4C)nnc3s2)cc1`, the RP-LC retention time came out at 1010 s.

Regarding `CCN1CCN(c2cc(C)c3cc(NC(=S)NCc4cccs4)ccc3n2)CC1`, the RP-LC retention time was 584 s.

Regarding `COc1cccc(CNC(=O)Cc2csc3nc(-c4cccc(Br)c4)cn23)c1`, the RP-LC retention time was found to be 925 s.

In turn, `CCOc1ccc(N2C(=O)N[C@@H]3C[C@]2(C)Oc2ccc(OC)cc23)cc1` returned an RP-LC retention time of 864 s.

As for `O=C1OC(c2ccccc2)=N/C1=C\c1ccc(N(CCCl)CCCl)cc1`, the RP-LC retention time came to 1240 s.

Compound `Cc1nnc(N2CCCC(C(=O)NCCC3=CCCCC3)C2)c2nn(-c3ccc(Cl)cc3)c(C)c12` (centres undefined) yielded an RP-LC retention time of 861 s.

In the case of `COc1ccc(-c2nc(-c3nnn(-c4ccccc4)c3C)no2)cc1OC`, the RP-LC retention time was 892 s.

Compound `Cc1cc(C)c(-c2nnc(NC(=O)c3ccccc3Br)s2)c(C)c1` registered an RP-LC retention time of 988 s.

`CC1CCN(C(=O)c2ccc3c(c2)n(C)c(=O)c2ccnn23)CC1` gave an RP-LC retention time of 587 s.

Turning to `Cc1ccc(-n2ncc3c(C)nnc(SCC(=O)N4CCC(C)CC4)c32)cc1C`, the RP-LC retention time was determined as 716 s.

Take `COc1ccc(Cl)cc1N(C)C(=O)C(=O)Nc1ccc2nc3n(c(=O)c2c1)CCCCC3`: the RP-LC retention time was 822 s.

In turn, `O=C(Nc1ccc(Cl)cc1)C1CCCN(c2nc3ccsc3c(=O)n2Cc2ccc(F)cc2)C1` (centres undefined) returned an RP-LC retention time of 1110 s.

Compound `COc1cccc(CC(=O)N2CCc3cc(-c4csc(C)n4)ccc32)c1` showed an RP-LC retention time of 967 s.

Consider `Cc1cc(C)n(-c2ccnc(N3CCC(C(=O)NC4CC4)CC3)n2)n1`, for which the RP-LC retention time was determined as 693 s.

Consider `CCNc1cc(N2CCCC(CCC(=O)N3CCCC(C(=O)OCC)C3)C2)ncn1` (centres undefined), for which the RP-LC retention time stood at 664 s.

The compound `O=C(NCc1cccc(Br)c1)c1ccc2c(c1)ncn2CCN1CCCC1` came in with an RP-LC retention time of 599 s.

For the compound `O=C(CC1CCN(C(=O)c2ccc3oc(C4CC4)nc3c2)CC1)NCC1CCCO1` (centres undefined), the RP-LC retention time is 640 s.

In turn, `CCOc1ccc(S(=O)(=O)N2CCC(C(=O)N(CC)CC)CC2)cc1C` registered an RP-LC retention time of 934 s.

`CC(C)CCNC(=O)C12CCCC=C1N(c1ccccc1)C(=O)CC2` (centres undefined) registered an RP-LC retention time of 819 s.

`O=C(Cc1c[nH]c2ccccc12)NC1CCN(c2cc(-c3ccc(Cl)cc3)[nH]n2)C1` (centres undefined) came in with an RP-LC retention time of 743 s.

In turn, `Cc1cc(C)cc(NC(=O)N2CCC(N3CCN(Cc4ccccc4)C(=O)C3=O)CC2)c1` returned an RP-LC retention time of 740 s.

Take `C[C@H]1CN(C(=O)c2ccc(F)cc2)C[C@@H]1c1nc(-c2ccccc2)no1`: the RP-LC retention time was found to be 996 s.

As for `CCc1onc(C)c1C1CCCN1C(=O)c1ccccc1F` (centres undefined), the RP-LC retention time amounted to 775 s.

As to `Cc1cc(C)cc(-c2nnc(Cc3nc(-c4ccccc4)no3)o2)c1`, the RP-LC retention time came out at 1130 s.
